From the kinase profiling compilation of Christmann-Franck et al. (2016)

Tests used:
Assay in all cases: radiometric filter-binding kinase assay, Kinase HotSpot
Details in all cases: compound 0.5 µM; ATP 10 µM
ROCK1 (human) = ROCK1 (human) (UniProt Q13464)
PRKD1 (human) = PRKD1 (human) (UniProt Q15139)
STK4 (human) = STK4 (human) (UniProt Q13043)
PTK2 (human) = PTK2 (human) (UniProt Q05397)
NEK3 (human) = NEK3 (human) (UniProt P51956)
PBK (human) = PBK (human) (UniProt Q96KB5)
NUAK2 (human) = NUAK2 (human) (UniProt Q9H093)
CLK4 (human) = CLK4 (human) (UniProt Q9HAZ1)
TTK (human) = TTK (human) (UniProt P33981)
TTK (human), sequence (P33981 whole entry, looked up): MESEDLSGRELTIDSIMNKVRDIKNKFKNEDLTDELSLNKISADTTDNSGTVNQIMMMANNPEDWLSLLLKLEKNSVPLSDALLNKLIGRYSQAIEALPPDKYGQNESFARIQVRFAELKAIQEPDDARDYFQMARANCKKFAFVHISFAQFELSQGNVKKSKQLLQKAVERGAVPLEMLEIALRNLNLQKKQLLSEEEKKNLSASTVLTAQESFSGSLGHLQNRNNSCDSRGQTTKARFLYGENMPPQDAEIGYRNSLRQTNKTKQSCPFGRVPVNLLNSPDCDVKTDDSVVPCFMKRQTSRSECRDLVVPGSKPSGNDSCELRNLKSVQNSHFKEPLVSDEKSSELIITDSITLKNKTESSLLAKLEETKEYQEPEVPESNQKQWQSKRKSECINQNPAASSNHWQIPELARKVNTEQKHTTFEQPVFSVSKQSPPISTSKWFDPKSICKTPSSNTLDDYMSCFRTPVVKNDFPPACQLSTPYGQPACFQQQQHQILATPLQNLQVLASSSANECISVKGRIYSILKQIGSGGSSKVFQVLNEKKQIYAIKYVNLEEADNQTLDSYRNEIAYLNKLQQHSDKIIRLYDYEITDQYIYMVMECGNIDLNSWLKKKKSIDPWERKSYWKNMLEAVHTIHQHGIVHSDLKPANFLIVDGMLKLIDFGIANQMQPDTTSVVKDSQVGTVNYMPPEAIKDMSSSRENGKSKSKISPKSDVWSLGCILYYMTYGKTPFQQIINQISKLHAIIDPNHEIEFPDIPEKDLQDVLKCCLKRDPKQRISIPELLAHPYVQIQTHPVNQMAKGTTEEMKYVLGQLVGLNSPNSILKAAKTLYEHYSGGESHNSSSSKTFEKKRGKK

DYRK1B (human) = DYRK1B (human) (UniProt Q9Y463)
IGF1R (human) = IGF1R (human) (UniProt P08069)
PDGFRB (human) = PDGFRB (human) (UniProt P09619)
TAOK3 (human) = TAOK3 (human) (UniProt Q9H2K8)
ACVR1 (human) = ACVR1 (human) (UniProt Q04771)
ACVR1 (human), sequence (Q04771 whole entry, looked up): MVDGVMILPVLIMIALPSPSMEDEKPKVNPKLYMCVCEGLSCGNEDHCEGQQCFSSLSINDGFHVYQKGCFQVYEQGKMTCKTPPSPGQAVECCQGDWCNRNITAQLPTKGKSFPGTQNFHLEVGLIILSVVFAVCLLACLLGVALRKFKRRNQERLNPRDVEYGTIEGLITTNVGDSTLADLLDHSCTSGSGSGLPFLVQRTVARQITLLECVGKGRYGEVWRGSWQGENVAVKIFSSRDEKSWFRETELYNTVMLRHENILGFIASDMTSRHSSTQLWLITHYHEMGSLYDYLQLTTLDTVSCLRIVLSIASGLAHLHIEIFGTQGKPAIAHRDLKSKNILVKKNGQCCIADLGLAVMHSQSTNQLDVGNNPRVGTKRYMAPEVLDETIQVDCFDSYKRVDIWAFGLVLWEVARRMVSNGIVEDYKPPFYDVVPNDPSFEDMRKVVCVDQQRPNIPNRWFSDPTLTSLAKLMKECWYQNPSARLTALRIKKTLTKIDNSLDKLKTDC

CAMKK2 (human) = CAMKK2 (human) (UniProt Q96RR4)
CDK2 CCNA2 (human) = CDK2 CCNA2 (human) (UniProt P24941+P20248)
KDR (human) = KDR (human) (UniProt P35968)
MAPKAPK2 (human) = MAPKAPK2 (human) (UniProt P49137)
MAP3K7 TAB1 (human) = MAP3K7 TAB1 (human) (UniProt O43318+Q15750)
SIK2 (human) = SIK2 (human) (UniProt Q9H0K1)
EPHA8 (human) = EPHA8 (human) (UniProt P29322)
STK16 (human) = STK16 (human) (UniProt O75716)
CSNK2A1 (human) = CSNK2A1 (human) (UniProt P68400)
CSNK2A1 (human), sequence (P68400 whole entry, looked up): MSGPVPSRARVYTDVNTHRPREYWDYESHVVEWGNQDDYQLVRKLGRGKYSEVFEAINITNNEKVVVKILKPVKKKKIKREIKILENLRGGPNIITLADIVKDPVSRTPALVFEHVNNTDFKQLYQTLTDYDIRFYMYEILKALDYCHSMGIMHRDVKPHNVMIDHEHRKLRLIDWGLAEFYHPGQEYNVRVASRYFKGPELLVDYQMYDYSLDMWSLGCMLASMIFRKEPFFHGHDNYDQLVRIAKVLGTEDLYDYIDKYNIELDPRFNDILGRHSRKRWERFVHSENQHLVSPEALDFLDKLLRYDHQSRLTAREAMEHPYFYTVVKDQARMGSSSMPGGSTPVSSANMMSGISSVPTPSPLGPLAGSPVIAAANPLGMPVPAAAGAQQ

PIM2 (human) = PIM2 (human) (UniProt Q9P1W9)
NEK6 (human) = NEK6 (human) (UniProt Q9HC98)
NEK6 (human), sequence (Q9HC98 whole entry, looked up): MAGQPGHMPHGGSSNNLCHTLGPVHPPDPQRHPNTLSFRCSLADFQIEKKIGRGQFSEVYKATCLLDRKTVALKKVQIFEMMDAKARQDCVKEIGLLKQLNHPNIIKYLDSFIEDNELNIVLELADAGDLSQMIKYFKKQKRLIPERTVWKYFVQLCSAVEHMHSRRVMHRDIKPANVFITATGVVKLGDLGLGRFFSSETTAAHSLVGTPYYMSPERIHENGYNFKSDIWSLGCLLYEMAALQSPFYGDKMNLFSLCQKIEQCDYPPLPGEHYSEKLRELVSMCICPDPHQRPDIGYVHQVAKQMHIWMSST

RIPK2 (human) = RIPK2 (human) (UniProt O43353)
RIPK2 (human), sequence (O43353 whole entry, looked up): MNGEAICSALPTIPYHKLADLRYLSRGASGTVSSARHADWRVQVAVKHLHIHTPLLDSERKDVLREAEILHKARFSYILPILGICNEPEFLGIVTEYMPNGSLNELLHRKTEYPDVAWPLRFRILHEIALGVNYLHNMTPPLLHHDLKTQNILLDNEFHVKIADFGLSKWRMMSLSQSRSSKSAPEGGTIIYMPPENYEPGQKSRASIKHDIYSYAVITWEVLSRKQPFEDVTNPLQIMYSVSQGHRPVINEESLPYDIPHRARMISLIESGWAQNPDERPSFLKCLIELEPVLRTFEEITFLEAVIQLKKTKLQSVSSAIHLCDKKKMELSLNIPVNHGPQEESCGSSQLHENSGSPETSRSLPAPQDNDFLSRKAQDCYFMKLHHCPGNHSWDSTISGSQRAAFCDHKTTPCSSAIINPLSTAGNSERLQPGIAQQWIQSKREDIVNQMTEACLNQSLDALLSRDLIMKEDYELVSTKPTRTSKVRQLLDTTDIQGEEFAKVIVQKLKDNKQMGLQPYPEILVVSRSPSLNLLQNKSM

SGK2 (human) = SGK2 (human) (UniProt Q9HBY8)
FGFR3 (human) = FGFR3 (human) (UniProt P22607)
PRKCA (human) = PRKCA (human) (UniProt P17252)
ABL2 (human) = ABL2 (human) (UniProt P42684)
MST1R (human) = MST1R (human) (UniProt Q04912)
MAP4K4 (human) = MAP4K4 (human) (UniProt O95819)
SYK (human) = SYK (human) (UniProt P43405)
KIT (human) = KIT (human) (UniProt P10721)
OXSR1 (human) = OXSR1 (human) (UniProt O95747)
OXSR1 (human), sequence (O95747 whole entry, looked up): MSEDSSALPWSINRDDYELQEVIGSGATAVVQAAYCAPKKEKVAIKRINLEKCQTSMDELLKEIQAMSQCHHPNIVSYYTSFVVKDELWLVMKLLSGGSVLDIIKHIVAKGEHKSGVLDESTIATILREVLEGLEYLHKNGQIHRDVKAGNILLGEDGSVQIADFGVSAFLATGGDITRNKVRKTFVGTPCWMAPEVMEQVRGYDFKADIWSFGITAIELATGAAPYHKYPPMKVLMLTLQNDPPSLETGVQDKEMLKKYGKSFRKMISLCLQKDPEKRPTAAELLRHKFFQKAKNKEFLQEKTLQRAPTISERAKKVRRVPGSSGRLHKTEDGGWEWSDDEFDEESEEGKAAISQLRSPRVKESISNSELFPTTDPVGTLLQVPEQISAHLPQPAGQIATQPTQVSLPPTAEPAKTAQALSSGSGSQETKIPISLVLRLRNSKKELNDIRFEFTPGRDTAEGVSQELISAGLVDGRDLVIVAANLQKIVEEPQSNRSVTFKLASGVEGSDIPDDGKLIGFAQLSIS

AKT2 (human) = AKT2 (human) (UniProt P31751)
STK24 (human) = STK24 (human) (UniProt Q9Y6E0)
STK24 (human), sequence (Q9Y6E0 whole entry, looked up): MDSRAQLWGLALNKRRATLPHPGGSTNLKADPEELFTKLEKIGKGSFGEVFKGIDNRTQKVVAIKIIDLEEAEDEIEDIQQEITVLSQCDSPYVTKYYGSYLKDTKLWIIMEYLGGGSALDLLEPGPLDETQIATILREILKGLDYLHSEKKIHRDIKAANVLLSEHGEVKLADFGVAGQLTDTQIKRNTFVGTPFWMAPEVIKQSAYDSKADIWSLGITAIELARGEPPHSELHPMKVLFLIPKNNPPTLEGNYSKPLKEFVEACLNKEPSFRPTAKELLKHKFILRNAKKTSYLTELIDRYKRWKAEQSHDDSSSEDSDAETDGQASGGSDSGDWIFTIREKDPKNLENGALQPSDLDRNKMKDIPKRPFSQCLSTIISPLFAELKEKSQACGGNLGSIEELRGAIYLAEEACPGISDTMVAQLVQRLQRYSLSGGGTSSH

HIPK2 (human) = HIPK2 (human) (UniProt Q9H2X6)
FES (human) = FES (human) (UniProt P07332)
[1] = biological target: TYK2 JH1 catalytic (human) (UniProt P29597)
TYK2 JH1 catalytic (human), sequence (P29597 whole entry, looked up): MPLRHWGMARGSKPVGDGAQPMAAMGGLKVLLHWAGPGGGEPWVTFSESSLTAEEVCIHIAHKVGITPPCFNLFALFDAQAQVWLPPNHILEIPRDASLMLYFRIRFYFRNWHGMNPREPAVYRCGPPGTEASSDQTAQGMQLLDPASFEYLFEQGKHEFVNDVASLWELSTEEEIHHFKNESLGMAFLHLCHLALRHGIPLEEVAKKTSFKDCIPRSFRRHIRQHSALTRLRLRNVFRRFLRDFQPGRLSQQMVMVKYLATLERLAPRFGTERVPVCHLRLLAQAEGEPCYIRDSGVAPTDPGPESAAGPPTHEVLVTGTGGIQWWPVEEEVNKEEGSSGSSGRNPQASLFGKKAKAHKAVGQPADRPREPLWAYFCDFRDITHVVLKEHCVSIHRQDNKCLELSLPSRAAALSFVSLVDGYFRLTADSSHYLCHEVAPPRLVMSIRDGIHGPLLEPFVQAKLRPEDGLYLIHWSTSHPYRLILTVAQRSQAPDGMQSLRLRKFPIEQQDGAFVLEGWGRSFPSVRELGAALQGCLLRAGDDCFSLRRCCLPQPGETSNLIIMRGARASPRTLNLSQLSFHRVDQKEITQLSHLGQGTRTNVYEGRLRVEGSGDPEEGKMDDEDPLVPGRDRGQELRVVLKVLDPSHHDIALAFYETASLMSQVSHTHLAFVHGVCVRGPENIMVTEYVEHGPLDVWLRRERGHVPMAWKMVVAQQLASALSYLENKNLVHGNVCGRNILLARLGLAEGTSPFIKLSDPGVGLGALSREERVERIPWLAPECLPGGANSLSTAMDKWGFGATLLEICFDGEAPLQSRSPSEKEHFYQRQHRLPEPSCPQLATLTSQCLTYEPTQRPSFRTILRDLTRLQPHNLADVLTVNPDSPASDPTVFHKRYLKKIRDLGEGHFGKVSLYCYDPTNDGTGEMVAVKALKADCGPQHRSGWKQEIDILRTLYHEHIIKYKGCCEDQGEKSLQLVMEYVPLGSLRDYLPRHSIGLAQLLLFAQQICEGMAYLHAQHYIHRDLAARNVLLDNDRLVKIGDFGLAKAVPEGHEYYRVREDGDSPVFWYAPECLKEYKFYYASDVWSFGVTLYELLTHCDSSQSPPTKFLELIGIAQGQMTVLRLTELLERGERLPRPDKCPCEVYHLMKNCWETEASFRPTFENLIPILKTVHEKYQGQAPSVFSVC

FGR (human) = FGR (human) (UniProt P09769)
EPHA6 (human) = EPHA6 (human) (UniProt Q9UF33)

COc1ccc2c(c[n+](C)c3c4cc5c(cc4ccc23)OCO5)c1OC
residual activity (ROCK1 (human)): 99.4% | residual activity (PRKD1 (human)): 100% | residual activity (STK4 (human)): 98.9% | residual activity (PTK2 (human)): 102% | residual activity (NEK3 (human)): 95.1% | residual activity (PBK (human)): 102% | residual activity (NUAK2 (human)): 98.9% | residual activity (CLK4 (human)): 89.9% | residual activity (TTK (human)): 101% | residual activity (DYRK1B (human)): 102% | residual activity (IGF1R (human)): 93.3% | residual activity (PDGFRB (human)): 93.5% | residual activity (TAOK3 (human)): 96.1% | residual activity (ACVR1 (human)): 93.2% | residual activity (CAMKK2 (human)): 98.2% | residual activity (CDK2 CCNA2 (human)): 85.1% | residual activity (KDR (human)): 104% | residual activity (MAPKAPK2 (human)): 103% | residual activity (MAP3K7 TAB1 (human)): 100% | residual activity (SIK2 (human)): 95.5% | residual activity (EPHA8 (human)): 100% | residual activity (STK16 (human)): 102% | residual activity (CSNK2A1 (human)): 83.3% | residual activity (PIM2 (human)): 105% | residual activity (NEK6 (human)): 104% | residual activity (RIPK2 (human)): 105% | residual activity (SGK2 (human)): 99.1% | residual activity (FGFR3 (human)): 99.1% | residual activity (PRKCA (human)): 78.9% | residual activity (ABL2 (human)): 96.7% | residual activity (MST1R (human)): 97.8% | residual activity (MAP4K4 (human)): 84.9% | residual activity (SYK (human)): 98.8% | residual activity (KIT (human)): 68.8% | residual activity (OXSR1 (human)): 94.8% | residual activity (AKT2 (human)): 93.6% | residual activity (STK24 (human)): 84.2% | residual activity (HIPK2 (human)): 92.6% | residual activity (FES (human)): 108% | residual activity [1]: 108% | residual activity (FGR (human)): 91.3%

Nc1cccc(-c2cc3c(Oc4cccc(O)c4)ncnc3[nH]2)c1
residual activity (ROCK1 (human)): 94.1% | residual activity (PRKD1 (human)): 94.4% | residual activity (STK4 (human)): 94.4% | residual activity (PTK2 (human)): 88.4% | residual activity (NEK3 (human)): 57.5% | residual activity (PBK (human)): 93.9% | residual activity (NUAK2 (human)): 90.3% | residual activity (CLK4 (human)): 104% | residual activity (TTK (human)): 104% | residual activity (DYRK1B (human)): 100% | residual activity (IGF1R (human)): 99.5% | residual activity (PDGFRB (human)): 39.9% | residual activity (TAOK3 (human)): 93.5% | residual activity (ACVR1 (human)): 183% | residual activity (CAMKK2 (human)): 95.9% | residual activity (CDK2 CCNA2 (human)): 88.5% | residual activity (KDR (human)): 6.7% | residual activity (MAPKAPK2 (human)): 108% | residual activity (MAP3K7 TAB1 (human)): 63% | residual activity (SIK2 (human)): 69.4% | residual activity (EPHA8 (human)): 57.5% | residual activity (STK16 (human)): 70.4% | residual activity (CSNK2A1 (human)): 96.8% | residual activity (PIM2 (human)): 108% | residual activity (NEK6 (human)): 90.2% | residual activity (RIPK2 (human)): 30.5% | residual activity (SGK2 (human)): 96.2% | residual activity (FGFR3 (human)): 67.9% | residual activity (PRKCA (human)): 95.6% | residual activity (ABL2 (human)): 1.4% | residual activity (MST1R (human)): 103% | residual activity (MAP4K4 (human)): 12.5% | residual activity (SYK (human)): 36.1% | residual activity (KIT (human)): 35.1% | residual activity (OXSR1 (human)): 119% | residual activity (AKT2 (human)): 109% | residual activity (STK24 (human)): 64.2% | residual activity (HIPK2 (human)): 100% | residual activity (FES (human)): 73.8% | residual activity [1]: 36.9% | residual activity (FGR (human)): 5.28%

CNC(=O)c1cc(Oc2ccc(NC(=O)Nc3ccc(Cl)c(C(F)(F)F)c3)cc2)ccn1
residual activity (ROCK1 (human)): 102% | residual activity (PRKD1 (human)): 99.7% | residual activity (STK4 (human)): 101% | residual activity (PTK2 (human)): 102% | residual activity (NEK3 (human)): 97.2% | residual activity (PBK (human)): 97.5% | residual activity (NUAK2 (human)): 101% | residual activity (CLK4 (human)): 95.2% | residual activity (EPHA6 (human)): 42% | residual activity (TTK (human)): 104% | residual activity (DYRK1B (human)): 93.2% | residual activity (IGF1R (human)): 94.3% | residual activity (PDGFRB (human)): 12% | residual activity (TAOK3 (human)): 63.5% | residual activity (ACVR1 (human)): 98.7% | residual activity (CAMKK2 (human)): 103% | residual activity (CDK2 CCNA2 (human)): 99.7% | residual activity (MAPKAPK2 (human)): 100% | residual activity (MAP3K7 TAB1 (human)): 101% | residual activity (SIK2 (human)): 102% | residual activity (EPHA8 (human)): 94.5% | residual activity (STK16 (human)): 105% | residual activity (CSNK2A1 (human)): 108% | residual activity (PIM2 (human)): 103% | residual activity (NEK6 (human)): 105% | residual activity (RIPK2 (human)): 86.2% | residual activity (SGK2 (human)): 103% | residual activity (FGFR3 (human)): 89.5% | residual activity (PRKCA (human)): 96.8% | residual activity (ABL2 (human)): 99.4% | residual activity (MST1R (human)): 97.6% | residual activity (MAP4K4 (human)): 96.1% | residual activity (SYK (human)): 101% | residual activity (KIT (human)): 53.3% | residual activity (OXSR1 (human)): 103% | residual activity (AKT2 (human)): 103% | residual activity (STK24 (human)): 110% | residual activity (FES (human)): 104% | residual activity [1]: 98.9% | residual activity (FGR (human)): 88.7%

O=C(Nc1cccc(Nc2nccc(Nc3cccc(C(F)(F)F)c3)n2)c1)C1CC1
residual activity (ROCK1 (human)): 101% | residual activity (PRKD1 (human)): 94.1% | residual activity (STK4 (human)): 83.1% | residual activity (PTK2 (human)): 89.1% | residual activity (NEK3 (human)): 95.8% | residual activity (PBK (human)): 101% | residual activity (NUAK2 (human)): 94.3% | residual activity (CLK4 (human)): 84.3% | residual activity (TTK (human)): 92.1% | residual activity (DYRK1B (human)): 96.3% | residual activity (IGF1R (human)): 95.7% | residual activity (PDGFRB (human)): 101% | residual activity (TAOK3 (human)): 110% | residual activity (ACVR1 (human)): 111% | residual activity (CAMKK2 (human)): 99.5% | residual activity (CDK2 CCNA2 (human)): 98.2% | residual activity (KDR (human)): 91.6% | residual activity (MAPKAPK2 (human)): 102% | residual activity (MAP3K7 TAB1 (human)): 87.4% | residual activity (SIK2 (human)): 103% | residual activity (EPHA8 (human)): 96.3% | residual activity (STK16 (human)): 87% | residual activity (CSNK2A1 (human)): 94.1% | residual activity (PIM2 (human)): 112% | residual activity (NEK6 (human)): 103% | residual activity (RIPK2 (human)): 81.6% | residual activity (SGK2 (human)): 118% | residual activity (FGFR3 (human)): 95% | residual activity (PRKCA (human)): 71.9% | residual activity (ABL2 (human)): 83.8% | residual activity (MST1R (human)): 92.6% | residual activity (MAP4K4 (human)): 92.4% | residual activity (SYK (human)): 101% | residual activity (KIT (human)): 86.1% | residual activity (OXSR1 (human)): 78.9% | residual activity (AKT2 (human)): 107% | residual activity (STK24 (human)): 98.3% | residual activity (HIPK2 (human)): 103% | residual activity (FES (human)): 94.3% | residual activity [1]: 42.5% | residual activity (FGR (human)): 80.9%

Cc1ccc(Nc2nccc(N(C)c3ccc4c(C)n(C)nc4c3)n2)cc1S(N)(=O)=O
residual activity (ROCK1 (human)): 100% | residual activity (PRKD1 (human)): 96.9% | residual activity (STK4 (human)): 98.4% | residual activity (PTK2 (human)): 76% | residual activity (NEK3 (human)): 94.2% | residual activity (PBK (human)): 101% | residual activity (NUAK2 (human)): 93.8% | residual activity (CLK4 (human)): 91.7% | residual activity (EPHA6 (human)): 80% | residual activity (TTK (human)): 73.4% | residual activity (DYRK1B (human)): 93.3% | residual activity (PDGFRB (human)): 40.4% | residual activity (TAOK3 (human)): 55.5% | residual activity (ACVR1 (human)): 104% | residual activity (CAMKK2 (human)): 98.5% | residual activity (CDK2 CCNA2 (human)): 96.1% | residual activity (MAPKAPK2 (human)): 99.6% | residual activity (MAP3K7 TAB1 (human)): 90.6% | residual activity (SIK2 (human)): 84.1% | residual activity (EPHA8 (human)): 90% | residual activity (STK16 (human)): 43.8% | residual activity (CSNK2A1 (human)): 114% | residual activity (PIM2 (human)): 101% | residual activity (NEK6 (human)): 96.1% | residual activity (RIPK2 (human)): 68.2% | residual activity (SGK2 (human)): 160% | residual activity (FGFR3 (human)): 39.3% | residual activity (PRKCA (human)): 94.4% | residual activity (ABL2 (human)): 38.5% | residual activity (MST1R (human)): 97.8% | residual activity (MAP4K4 (human)): 77.4% | residual activity (SYK (human)): 101% | residual activity (KIT (human)): 10.9% | residual activity (OXSR1 (human)): 103% | residual activity (AKT2 (human)): 107% | residual activity (STK24 (human)): 106% | residual activity (HIPK2 (human)): 105% | residual activity [1]: 94% | residual activity (FGR (human)): 35.8%
